Data from US20060173183A1, “Multicyclic bis-amide MMP inhibitors” (Alantos Pharmaceuticals, Inc.,, priority 2004, published 2006).

Each molecule was assayed against MMP-13 (Homo sapiens, UniProt P45452) (assay: Assay for determining MMP-13 inhibition (fluorogenic substrate)). Details: Table 1, Summary of MMP-13 Activity for Compounds of Formula I; bounds only.
Assay type: biochemical
Method: The MMP-13 inhibiting activity of the multicyclic bis-amide MMP-13 inhibiting compounds of the present invention may be measured using any suitable assay known in the art. A standard in vitro assay for MMP-13 inhibiting activity is described in Example 3000.
Assay for Determining MMP-13 Inhibition
The typical assay for MMP-13 activity is carried out in assay buffer comprised of 50 mM Tris, pH 7.5, 150 mM NaCl, 5 mM CaCl2 and 0.05% Brij-35. Different concentrations of tested compounds are prepared in assay buffer in 50 μL aliquots. 10 μL of 40 nM stock solution of MMP-13 enzyme is added to the compound solution. The mixture of enzyme and compound in assay buffer is thoroughly mixed and incubated for 20 minutes at room temperature. Upon the completion of incubation, the assay is started by addition of 40 μL of 12.5 μM stock solution of MMP-13 fluorogenic substrate (Calbiochem Cat. No. 444235). The time-dependent increase in fluorescence is measured at the 325 nm excitation and 393 nm emission by automatic plate multireader. The IC50 values are calculated from the initial reaction rates. Selectivity assays were run in a similar manner using MMP-1, MMP-14 and TACE.

IC50 | SMILES
> 5 nM | Cc1cc(CNC(=O)c2cc(C(=O)NC3CCc4cc(-c5nnn[nH]5)ccc43)ncn2)ccc1F (stereo not shown) [Ex. 1]
> 5 nM | Cc1cc(CNC(=O)c2cc(C(=O)NC3CCCc4cc(-c5nnn[nH]5)ccc43)ncn2)ccc1F (stereo not shown) [Ex. 2301]
> 5 nM | Cc1cc(CNC(=O)c2cc(C(=O)N[C@H]3CCc4cc(-c5nnn[nH]5)ccc43)ncn2)ccc1F [Ex. 2303]
> 5 nM | COc1cccc(CNC(=O)c2cc(C(=O)N[C@H]3CCc4cc(-c5nnn[nH]5)ccc43)ncn2)c1 [Ex. 2308]
< 5 nM | Cc1c(-c2nnn[nH]2)ccc2c1CC[C@@H]2NC(=O)c1cc(C(=O)NCc2ccc3c(c2)CN(c2c(N)c(=O)c2=O)CC3)ncn1 [Ex. 2328]
< 5 nM | COc1cccc(CNC(=O)c2cc(C(=O)N[C@H]3CCc4cc(-c5noc(=O)[nH]5)ccc43)ncn2)c1 [Ex. 2407]
< 5 nM | Cc1cc(CNC(=O)c2cc(C(=O)N[C@H]3CCc4c3ccc(C(=O)O)c4C)ncn2)ccc1F [Ex. 2522]
< 5 nM | Cc1c(C(=O)O)ccc2c1CC[C@@H]2NC(=O)c1cc(C(=O)NCc2ccc3c(c2)CN(c2c(N)c(=O)c2=O)CC3)ncn1 [Ex. 2539]
< 5 nM | COc1cc(CNC(=O)c2cc(C(=O)N[C@H]3CCc4c3ccc(C(=O)O)c4C)ncn2)ccc1F [Ex. 2562]
< 5 nM | Cc1cc(CNC(=O)c2cc(C(=O)N[C@H]3CCc4cc(C(=O)O)ccc43)nc(N)n2)ccc1F [Ex. 2702]
